# Assay: physchem
# Details: water, thermodynamic from solid
smiles,measurement,value
"C/C(=N\C#N)N(C)Cc1ccc(Cl)nc1 [crystalline acetamiprid, acetamiprid]",solubility at 24 h,2750 µg/mL

# Reference: patent US9173391B2, “Crystalline complexes of 4-hydroxy benzoic acid and selected pesticides” (BASF SE, priority 2009, dated 2015)
